Measured values: ChEMBL document CHEMBL3046027, “In vitro and in vivo antifungal activity of synthetic pure isothiocyanates against Sclerotinia sclerotiorum” (Pest Manag Sci, 2011)

Tests used:
Sclerotinia sclerotiorum [1] = experiment: Fungistatic activity in Sclerotinia sclerotiorum assessed as viability in volatile phase at 786 umol/l measured at 20 degC after 5 days relative to control; type: functional; details: 120 h, read-out: GI
Sclerotinia sclerotiorum [2] = experiment: Fungistatic activity in Sclerotinia sclerotiorum assessed as sclerotial viability measured at 20 degC after 5 days; type: functional, organism-based; details: 120 h
Sclerotinia sclerotiorum [3] = experiment: In vivo antifungal Sclerotinia sclerotiorum in Pepper (Capsicum annuum L. cv. Sera Demre) assessed as inhibition of mycelial growth in volatile phase at 79 umol/L measured after 10 to 14 weeks; type: functional
Sclerotinia sclerotiorum [4] = experiment: In vivo antifungal Sclerotinia sclerotiorum in Pepper (Capsicum annuum L. cv. Sera Demre) assessed as inhibition of mycelial growth in volatile phase at 158 umol/L measured after 10 to 14 weeks; type: functional
Sclerotinia sclerotiorum [5] = experiment: Antifungal activity against Sclerotinia sclerotiorum assessed as inhibition of germination in volatile phase at 786 umol/l measured at 20 degC after 5 days; type: functional; details: 120 h
Sclerotinia sclerotiorum [6] = experiment: Fungistatic activity in Sclerotinia sclerotiorum assessed as inhibition of mycelial growth in volatile phase at 550 umol/l measured at 20 degC after 5 days relative to control; type: functional; details: 120 h, read-out: GI
Sclerotinia sclerotiorum [7] = experiment: Antifungal activity against Sclerotinia sclerotiorum assessed as inhibition of germination in volatile phase at 39 umol/l measured at 20 degC after 5 days; type: functional; details: 120 h
Sclerotinia sclerotiorum [8] = experiment: Antifungal activity against Sclerotinia sclerotiorum assessed as inhibition of mycelial growth in volatile phase at 79 umol/l measured at 20 degC after 5 days; type: functional; details: 120 h, read-out: GI
Sclerotinia sclerotiorum [9] = experiment: Antifungal activity against Sclerotinia sclerotiorum assessed as inhibition of mycelial growth in volatile phase at 550 umol/l measured at 20 degC after 5 days; type: functional; details: 120 h, read-out: GI
Sclerotinia sclerotiorum [10] = experiment: Antifungal activity against Sclerotinia sclerotiorum assessed as inhibition of mycelial growth in contact phase at 2358 umol/l measured at 20 degC after 5 days; type: functional; details: 120 h, read-out: GI
Sclerotinia sclerotiorum [11] = experiment: Fungistatic activity in Sclerotinia sclerotiorum assessed as inhibition of mycelial growth in contact phase at 2358 umol/l measured at 20 degC after 5 days relative to control; type: functional; details: 120 h, read-out: GI
Sclerotinia sclerotiorum [12] = experiment: Antifungal activity against Sclerotinia sclerotiorum assessed as inhibition of germination in volatile phase at 79 umol/l measured at 20 degC after 5 days; type: functional; details: 120 h
Sclerotinia sclerotiorum [13] = experiment: Fungistatic activity in Sclerotinia sclerotiorum assessed as inhibition of mycelial growth in volatile phase measured at 20 degC after 5 days; type: functional, organism-based; details: 120 h
Sclerotinia sclerotiorum [14] = experiment: Antifungal activity against Sclerotinia sclerotiorum assessed as inhibition of mycelial growth in contact phase at 786 umol/l measured at 20 degC after 5 days; type: functional; details: 120 h, read-out: GI
Sclerotinia sclerotiorum [15] = experiment: Antifungal activity against Sclerotinia sclerotiorum assessed as inhibition of germination in volatile phase at 236 umol/l measured at 20 degC after 5 days; type: functional; details: 120 h
Sclerotinia sclerotiorum [16] = experiment: Fungistatic activity in Sclerotinia sclerotiorum assessed as inhibition of carpogenic germination in volatile phase at 786 umol/l measured at 20 degC after 5 days relative to control; type: functional; details: 120 h
Sclerotinia sclerotiorum [17] = experiment: Antifungal activity against Sclerotinia sclerotiorum assessed as inhibition of mycelial growth in contact phase at 708 umol/l measured at 20 degC after 5 days; type: functional; details: 120 h, read-out: GI
Sclerotinia sclerotiorum [18] = experiment: Antifungal activity against Sclerotinia sclerotiorum assessed as inhibition of mycelial growth in contact phase at 1572 umol/l measured at 20 degC after 5 days; type: functional; details: 120 h, read-out: GI
Sclerotinia sclerotiorum [19] = experiment: Fungistatic activity in Sclerotinia sclerotiorum assessed as inhibition of carpogenic germination in volatile phase at 393 umol/l measured at 20 degC after 5 days relative to control; type: functional; details: 120 h
Sclerotinia sclerotiorum [20] = experiment: Antifungal activity against Sclerotinia sclerotiorum assessed as inhibition of mycelial growth in volatile phase at 393 umol/l measured at 20 degC after 5 days; type: functional; details: 120 h, read-out: GI
Sclerotinia sclerotiorum [21] = experiment: Antifungal activity against Sclerotinia sclerotiorum assessed as inhibition of mycelial growth in volatile phase at 39 umol/l measured at 20 degC after 5 days; type: functional; details: 120 h, read-out: GI
Sclerotinia sclerotiorum [22] = experiment: Antifungal activity against Sclerotinia sclerotiorum assessed as inhibition of mycelial growth in volatile phase at 786 umol/l measured at 20 degC after 5 days; type: functional; details: 120 h, read-out: GI
Sclerotinia sclerotiorum [23] = experiment: Antifungal activity against Sclerotinia sclerotiorum assessed as inhibition of germination in volatile phase at 393 umol/l measured at 20 degC after 5 days; type: functional; details: 120 h
Sclerotinia sclerotiorum [24] = experiment: Antifungal activity against Sclerotinia sclerotiorum assessed as inhibition of mycelial growth in contact phase at 550 umol/l measured at 20 degC after 5 days; type: functional; details: 120 h, read-out: GI
Sclerotinia sclerotiorum [25] = experiment: Fungistatic activity in Sclerotinia sclerotiorum assessed as inhibition of mycelial growth in contact phase measured at 20 degC after 5 days; type: functional, organism-based; details: 120 h
Sclerotinia sclerotiorum [26] = experiment: Fungistatic activity in Sclerotinia sclerotiorum assessed as inhibition of carpogenic germination in volatile phase at 79 umol/l measured at 20 degC after 5 days relative to control; type: functional; details: 120 h

**Q.** Which results are given for `CCN=C=S` [ETHYL ISOTHIOCYANATE]?
**A.** inhibition of growth at 786 µM (Sclerotinia sclerotiorum [1]): 100%; EC50 (Sclerotinia sclerotiorum [2]): 212 µM; inhibition in vivo at 79 µM (Sclerotinia sclerotiorum [3]): 38.3%; inhibition in vivo at 158 µM (Sclerotinia sclerotiorum [4]): 70%; inhibition at 786 µM (Sclerotinia sclerotiorum [5]): 100%; inhibition of growth at 550 µM (Sclerotinia sclerotiorum [6]): 100%; inhibition at 39 µM (Sclerotinia sclerotiorum [7]): 0%; inhibition of growth at 79 µM (Sclerotinia sclerotiorum [8]): 30.8%; inhibition of growth at 550 µM (Sclerotinia sclerotiorum [9]): 100%; inhibition of growth at 2358 µM (Sclerotinia sclerotiorum [10]): 100%; inhibition of growth at 2358 µM (Sclerotinia sclerotiorum [11]): 100%; inhibition at 79 µM (Sclerotinia sclerotiorum [12]): 26.7%; EC50 (Sclerotinia sclerotiorum [13]): 157 µM; inhibition of growth at 786 µM (Sclerotinia sclerotiorum [14]): 69.5%; inhibition at 236 µM (Sclerotinia sclerotiorum [15]): 46.7%; inhibition at 786 µM (Sclerotinia sclerotiorum [16]): 87.5%; inhibition of growth at 708 µM (Sclerotinia sclerotiorum [17]): 56.2%; inhibition of growth at 1572 µM (Sclerotinia sclerotiorum [18]): 81.5%; inhibition at 393 µM (Sclerotinia sclerotiorum [19]): 62.5%; inhibition of growth at 393 µM (Sclerotinia sclerotiorum [20]): 56%; inhibition of growth at 39 µM (Sclerotinia sclerotiorum [21]): 5%; inhibition of growth at 786 µM (Sclerotinia sclerotiorum [22]): 100%; inhibition at 393 µM (Sclerotinia sclerotiorum [23]): 66.7%; inhibition of growth at 550 µM (Sclerotinia sclerotiorum [24]): 34.2%; EC50 (Sclerotinia sclerotiorum [25]): 653 µM; inhibition at 79 µM (Sclerotinia sclerotiorum [26]): 52.5%
